# Measurements from patent publication US9072741B2, “Methods of treating liver fibrosis and pre-cirrhosis with epidermal growth factor receptor inhibitors” (The General Hospital Corporation, priority 2009, dated 2015).
# Several values for one entry are separate records, joined by “and”; a condition that tells them apart may be missing. Identical values can stand only once. Marks after values point to notes of the source that are not given here.
# Experiments:
# [1] = system: activated hepatic stellate cells; assay: α-SMA staining of liver sections for activated hepatic stellate cells in DEN-treated rats; assay type: in vivo, male Wistar rats
# Method: FIGS. 2B-2G are a series of six panels showing representative pictures of Masson's trichome (B-D) and α-SMA stains (E-G) of liver sections from rats receiving weekly intraperitoneal injections of DEN (50 mg/kg) for 18 weeks and (B and E) vehicle only, (C and F) 0.5 mg/kg erlotinib (Erl 0.5), or (D and G) 2 mg/kg erlotinib (Erl 2) during weeks 12-18.
# FIGS. 6B-6E are a series of four panels showing representative pictures of Masson's trichrome (B-C) and α-SMA stains (D-E) of liver sections from rats receiving weekly intraperitoneal injections of DEN (50 mg/kg) for 18 weeks and (B and D) vehicle only or (C and E) 18 mg/kg lapatinib during weeks 12-18.
# Repeated injury to the liver causes damage to hepatocytes and activates resident macrophages called Kupffer cells. Damaged hepatocytes and activated Kupffer cells secrete cytokines and growth factors into the liver milieu, which activate hepatic stellate cells (Friedman, Gastroenterology 134:1655-69, 2008). Normally, hepatic stellate cells are quiescent and store vitamin A and fat. Upon activation, they differentiate into a myofibroblast-phenotype and express α-smooth muscle actin (α-SMA) (Friedman, Gastroenterology 134:1655-69, 2008). […] The degree of liver disease (fibrosis versus cirrhosis) is pathologically assessed through trichrome staining of collagen by the method of Ishak (Mod Pathol 7:690-713, 1994). […]
# advanced HCC = details: recent clinical trials (Philip et al.; Thomas et al.); cited from earlier work
# [2] = system: DEN-induced liver fibrosis/cirrhosis; assay: DEN-induced rat model: fibrosis/cirrhosis by Ishak score of Masson's trichrome stained liver sections; assay type: in vivo, male Wistar rats; details: for mode of Ishak score: vehicle mode 6; for range of Ishak score: vehicle range 2-6
# Method: FIG. 2A is a bar graph depicting the Ishak score of male Wistar rats receiving weekly intraperitoneal injections of DEN (50 mg/kg) for 18 weeks and vehicle only (n=16), 0.5 mg/kg erlotinib (Erl 0.5; n=8), or 2 mg/kg erlotinib (Erl 2; n=8) during weeks 12-18.
# FIG. 6A is a bar graph depicting the Ishak score of male Wistar rats receiving weekly intraperitoneal injections of DEN (50 mg/kg) for 18 weeks and vehicle only (n=8) or 18 mg/kg lapatinib (n=8) during weeks 12-18. *, significant.
# Erlotinib is a drug used to treat non-small cell lung cancer and pancreatic cancer. Erlotinib specifically targets the EGFR, which is highly expressed and occasionally mutated in various forms of cancer, by binding to the adenosine triphosphate (ATP) binding site of the receptor (Raymond et al., Drugs 60 Suppl 1:15-23, 2000). To investigate erlotinib as a chemoprevention strategy for liver fibrogenesis, male Wistar rats were given a weekly intraperitoneal injection of 50 mg/kg DEN to induce cirrhosis and HCC (Lee et al., Korean J Hepatol 13:70-80, 2007). Erlotinib was administered by intraperitoneal injection daily (5× a week) during weeks 12-18 at a dose of 2 mg/kg, which is equivalent to chemotherapeutic dosing regimens in humans. […] In a separate study, the dose of erlotinib was lowered to 0.5 mg/kg.
# Repeated injury to the liver causes damage to hepatocytes and activates resident macrophages called Kupffer cells. Damaged hepatocytes and activated Kupffer cells secrete cytokines and growth factors into the liver milieu, which activate hepatic stellate cells (Friedman, Gastroenterology 134:1655-69, 2008). Normally, hepatic stellate cells are quiescent and store vitamin A and fat. Upon activation, they differentiate into a myofibroblast-phenotype and express α-smooth muscle actin (α-SMA) (Friedman, Gastroenterology 134:1655-69, 2008). Activated hepatic stellate cells deposit fibrous collagen into the space of Disse acutely causing fibrosis and chronically causing cirrhosis. The degree of liver disease (fibrosis versus cirrhosis) is pathologically assessed through trichrome staining of collagen by the method of Ishak (Mod Pathol 7:690-713, 1994).
# In early stages of liver fibrosis, collagen deposition is localized around the portal tracts (Ishak score 1 or 2), but it bridges between portal tracts at later stages of fibrosis (Ishak score 3 or 4) and ultimately forms nodules around regenerating hepatocytes during cirrhosis (Ishak score 5 or 6). Although there is some heterogeneity in this model, intraperitoneal administration of DEN causes, on average, an Ishak score 0.8 (range 0-2) fibrosis after 8 weeks, an Ishak score 4.1 (range 3-6) fibrosis/cirrhosis after 12 weeks, and an Ishak score 5.1 (range 4-6) cirrhosis after 18 weeks. Consistent with this, hepatic stellate cell activation increases over time after DEN administration as assessed by α-SMA staining.
# Remarkably, erlotinib inhibited fibrogenesis. […] The range for 16 vehicle animals was 2-6 with a mode of 6 as illustrated in FIG. 2B. […] To further examine the effects of erlotinib on liver fibrosis, α-SMA staining was performed for activated hepatic stellate cells.
# To investigate lapatinib as a chemoprevention strategy for liver fibrogenesis, male Wistar rats were given a weekly intraperitoneal injection of 50 mg/kg DEN to induce cirrhosis and HCC (Lee et al., Korean J Hepatol 13:70-80, 2007). Lapatinib was administered by intraperitoneal injection daily (5× a week) during weeks 12-18 at a dose of 18 mg/kg.
# Similar to erlotinib, lapatinib inhibited fibrogenesis. […] To further examine the effects of lapatinib on liver fibrosis, α-SMA staining was performed for activated hepatic stellate cells.
# [3] = system: DEN-induced fibrosis and cirrhosis; assay: DEN-treated rats with liver biopsy before and after treatment (disease progression within the same animal); assay type: in vivo, male Wistar rats
# Method: FIG. 3A is a scheme of the experiment. Male Wistar rats received weekly intraperitoneal injections of DEN (50 mg/kg) for 18 weeks. After 12 weeks, the rats underwent a survival hepatectomy and a liver biopsy was removed for histology. Rats then received vehicle or erlotinib (2 mg/kg) daily (5 days/week) during weeks 13-18. Rats were sacrificed at 19 weeks after a one-week washout of DEN. FIG. 3B is a bar graph showing Ishak scores from Masson's trichrome stains of liver sections from each animal. **p<0.01 compared to vehicle. FIG. 3C is a bar graph depicting the number of tumor nodules that were greater than 5 mm in diameter in rats that received vehicle or erlotinib. **p<0.01 compared to vehicle. FIG. 3D is a bar graph showing the weights of livers at the time of sacrifice expressed as percent body weight.
# To further examine the ability of erlotinib to reverse fibrosis and cirrhosis, liver biopsies were performed on DEN-treated rats before and after they received erlotinib (FIG. 3A) to determine disease progression within the same animal.
Structure (SMILES),activation of hepatic stellate cells (α-SMA staining) ([1]; 0.5 and 2 mg/kg weeks 12-18 vs vehicle),disease control in advanced HCC patients (advanced HCC),"average Ishak score ([2]; 0.5 mg/kg weeks 12-18, n=8, vehicle 4.9)",mode of Ishak score ([2]; 0.5 mg/kg weeks 12-18),range of Ishak score ([2]; 0.5 mg/kg weeks 12-18),"average Ishak score ([2]; 2 mg/kg weeks 12-18, n=8, vehicle 4.9)",mode of Ishak score ([2]; 2 mg/kg weeks 12-18),range of Ishak score ([2]; 2 mg/kg weeks 12-18),"animals with reversed disease progression ([3]; 2 mg/kg weeks 13-18, eight animals)","fibrosis and cirrhosis (Ishak, FIG. 3B) ([3]; 2 mg/kg weeks 13-18 vs vehicle)","tumorigenesis (tumor nodules greater than 5 mm, FIG. 3C) ([3]; 2 mg/kg weeks 13-18 vs vehicle)","liver weight (percent body weight, FIG. 3D) ([3]; 2 mg/kg weeks 13-18 vs vehicle, at sacrifice)","Ishak 19 weeks, AVERAGE ([3]; average of 8 rats after 2 mg/kg weeks 13-18, vehicle 5.8)","Change of Ishak score, AVERAGE ([3]; average of 8 rats, 2 mg/kg weeks 13-18, vehicle +2.2)","Ishak 13 weeks, AVERAGE ([3]; average of 8 rats, biopsy before treatment, vehicle 3.6)","Change of Ishak score ([3]; individual rats, 19 weeks vs 13 weeks, 2 mg/kg weeks 13-18, 2 mg/kg)","Ishak 19 weeks ([3]; individual rats, after 2 mg/kg daily (5 days/week) weeks 13-18)","Ishak 13 weeks ([3]; individual rats, biopsy before treatment (baseline))",activation of hepatic stellate cells (α-SMA staining) ([1]; 18 mg/kg weeks 12-18 vs vehicle),"average Ishak score ([2]; 18 mg/kg weeks 12-18, n=8, vehicle 5.6)"
"C#Cc1cccc(Nc2ncnc3cc(OCCOC)c(OCCOC)cc23)c1 [erlotinib, 4-Quinazolinamine, N-(3-ethynylphenyl)-6,7-bis(2-methoxyethoxy)]",dramatically decreased the activation of hepatic stellate cells in a dose-dependent fashion,improved disease control in only a minority,4.3,4,3-6,2.6,2,1-4,two out of eight,significantly less fibrosis and cirrhosis,significant decrease in tumorigenesis,decrease in liver weight,4.3*,+1,3.3,+3 and +2 (3×) and −2 and −1 and +1 (2×),6 and 5 (2×) and 4 (3×) and 3 (2×),3 (4×) and 2 (2×) and 5 (2×),,
"CS(=O)(=O)CCNCc1ccc(-c2ccc3ncnc(Nc4ccc(OCc5cccc(F)c5)c(Cl)c4)c3c2)o1 [lapatinib, 4-Quinazolinamine, N-(3-chloro-4-((3-fluorophenyl)methoxy)phenyl)-6-(5-(((2-(methylsulfonyl)ethyl)amino)methyl)-2-furanyl)]",,,,,,,,,,,,,,,,,,,dramatically decreased the activation of hepatic stellate cells in a dose-dependent fashion,4.3
